Experimental data as given in patent US20240316067A1, “METHODS OF DECREASING HEPARAN SULFATE EXPRESSION USING EXT1 INHIBITORS” (priority 2023, published 2024).

Columns and labels:
Type in all cases: cell-based
[1] = system: HS3ST1; assay: HS3ST1 reporter cell line, HTS of FDA-approved drug library (EC-50, CCK-8); conditions: a listed drug is a confirmed inhibitor
From the text: FIGS. 13A-13C show EC-50 and CCK-8 experiments on HS3ST1 using bortezomib.
FIGS. 14A-14C show EC-50 and CCK-8 experiments on HS3ST1 using zinc pyrithione.
FIGS. 15A-15B show EC-50 and CCK-8 experiments on HS3ST1 using artesunate.
(§1) Using a stable cell line with promoter luciferase reporter of the HS-biosynthetic gene EXT1, the EXT1 and other HS-biosynthetic gene reporter cell lines were screened with an FDA-approved drug library. (FIG. 1; FIG. 2)

[2] = system: EXT1; assay: EXT1 promoter luciferase reporter stable cell line, HTS of FDA-approved drug library (EC-50, CCK-8); conditions: for confirmed candidates when screened with respect to EXT1: EC-50 and CCK-8, 10 μL; for Inhibition Candidate, confirmation at lower concentration: EXT1 cell line, 2nd confirmatory screen, a listed drug is a confirmed inhibitor
From the text: as §1

[3] = system: HS3ST4; assay: HS3ST4 reporter cell line, HTS of FDA-approved drug library; conditions: a listed drug is a confirmed inhibitor
From the text: as §1

Compound: C[C@H]1[C@H](OC(=O)CCC(=O)O)O[C@@H]2O[C@@]3(C)CC[C@H]4[C@H](C)CC[C@@H]1[C@@]24OO3 [Artesunate]
- Inhibition Candidate, confirmation at lower concentration [1]: A1- Artesunate

Compound: CC(C)C[C@H](NC(=O)[C@H](Cc1ccccc1)NC(=O)c1cnccn1)B(O)O [Bortezomib]
- Inhibition Candidate, confirmation at lower concentration [1]: B3- Bortezomib

Compound: C=C1/C(=C\C=C2/CCC[C@]3(C)[C@@H]([C@H](C)CCCC(C)(C)O)CC[C@@H]23)C[C@@H](O)C[C@@H]1O [Calcitriol, 1, 25-dihydroxycholecalciferol]
- confirmed candidates when screened with respect to EXT1 [2]: confirmed candidates
- Inhibition Candidate, confirmation at lower concentration [2]: B2- Calcitriol

Compound: COc1ccc(/C=C\c2cc(OC)c(OC)c(OC)c2)cc1OP(=O)(O)O [Frosbretabullin, Fosbretabulin]
- Inhibition Candidate, confirmation at lower concentration [3]: D5- Frosbretabullin

Compound: O=C(Nc1ccc([N+](=O)[O-])cc1Cl)c1cc(Cl)ccc1O [Niclosamide]
- Inhibition Candidate, confirmation at lower concentration [3]: A6- Niclosamide

Compound: C=C1CC[C@H](O)C/C1=C/C=C1\CCC[C@]2(C)[C@@H]([C@H](C)CCCC(C)C)CC[C@@H]12 [Vitamin D3, cholecalciferol]
- confirmed candidates when screened with respect to EXT1 [2]: confirmed candidates
- Inhibition Candidate, confirmation at lower concentration [2]: D5- Vitamin D3
- Inhibition Candidate, confirmation at lower concentration ([2]; listed as vitamin D3): confirmed to inhibit at low doses

Compound: Zinc pyrithione
- Inhibition Candidate, confirmation at lower concentration [1]: D6- Zinc Pyrithione
